Eleven compounds from the Kinase Knowledgebase extract (Sharma et al. 2016) can be followed below.

Chain of MAPK14 (Q16539 whole entry, looked up): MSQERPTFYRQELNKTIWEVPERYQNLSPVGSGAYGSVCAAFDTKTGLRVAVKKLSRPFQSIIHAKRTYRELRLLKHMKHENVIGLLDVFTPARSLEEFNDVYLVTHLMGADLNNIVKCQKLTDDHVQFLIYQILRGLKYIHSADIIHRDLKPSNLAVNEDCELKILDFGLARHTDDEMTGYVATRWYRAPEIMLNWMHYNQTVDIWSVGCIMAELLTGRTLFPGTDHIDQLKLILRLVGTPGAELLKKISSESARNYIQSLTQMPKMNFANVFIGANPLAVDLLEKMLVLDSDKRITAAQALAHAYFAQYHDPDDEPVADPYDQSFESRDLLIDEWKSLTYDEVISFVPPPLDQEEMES

This test concerns the target MAPK14 (UniProt Q16539). Put plainly: Inhibition of MAPK14 Kinase Activity.
With `O=C(Nc1ccc2c(-c3c(-c4ccccn4)nn4c3CCC4)ccnc2c1)Nc1ccc2c(-c3c(-c4ccccn4)nn4c3CCC4)ccnc2c1`, the IC50 was 4.64 µM.

Consider `CN(C)CCNC(=O)Nc1ccc2c(-c3c(-c4ccccn4)nn4c3CCC4)ccnc2c1`, for which the IC50 turned out to be 0.867 µM.

`CN(C)CC(=O)Nc1ccc2c(-c3c(-c4ccccn4)nn4c3CCC4)ccnc2c1` yielded an IC50 of 1.46 µM. Next, `COC(=O)Nc1ccc2c(-c3c(-c4ccccn4)nn4c3CCC4)ccnc2c1`: 0.526 µM; `Nc1ccc2c(-c3c(-c4ccccn4)nn4c3CCC4)ccnc2c1`: 2.57 µM; `CN(C)CCC(=O)Nc1ccc2c(-c3c(-c4ccccn4)nn4c3CCC4)ccnc2c1`: 2.46 µM. In turn, `O=C(Nc1ccc2c(-c3c(-c4ccccn4)nn4c3CCC4)ccnc2c1)OCCO` displayed an IC50 of 0.616 µM. In turn, `O=C(NCCO)Nc1ccc2c(-c3c(-c4ccccn4)nn4c3CCC4)ccnc2c1` yielded an IC50 of 1.08 µM. In the case of `CC(=O)Nc1ccc2c(-c3c(-c4ccccn4)nn4c3CCC4)ccnc2c1` it was 1.34 µM; in that of `COCCNC(=O)Nc1ccc2c(-c3c(-c4ccccn4)nn4c3CCC4)ccnc2c1`, 1.05 µM; in that of `O=C1OCCN1c1ccc2c(-c3c(-c4ccccn4)nn4c3CCC4)ccnc2c1`, 2.06 µM.

By IC50 is commonly meant the concentration that inhibits the measured activity by half.
